Among the data in patent publication US20250154134A1, “COMPOUND AS FAK INHIBITOR AND USE THEREOF” (WIGEN BIOMEDICINE TECHNOLOGY (SHANGHAI) CO., LTD., priority 2022, published 2025) are IC50 values, retold here.

Broadly, the IC50 is the point on the concentration scale where inhibition reaches its midpoint.

Test [1] concerns the target FAK recombinant protein (Homo sapiens (Human), UniProt Q05397). Nature of the test: Inhibitory activity against FAK enzyme (HTRF, TK substrate). In kind it is biochemical. Here is the method: A compound serially diluted with DMSO was mixed with a FAK recombinant protein. After the mixture was left to stand at room temperature for 10 min, a biotin-labeled TK substrate (TK) and ATP were added. […] The inhibition percentage and IC50 of the compound were calculated compared to the DMSO control group.
For orientation: In TR-FRET formats the signal depends on donor and acceptor labels being close together.

In test [2] the test system is PC3 cells. Nature of the test: PC3 cell proliferation, 2D activity assay (Cell Titer-Lumi, 72 h). In kind it is cell-based, human. Particulars: Homo sapiens, PC-3, read-out: 2D inhibitory activity against PC3 cells IC50. Here is the method:
(§1) 2D activity assay: 1200 PC3 cells were seeded in a 96-well plate. After overnight adherence culture, A compound serially diluted was added. […] The growth of the cells was evaluated, and the IC50 of the compound inhibiting cell growth was calculated. 3D activity assay: PC3 cells were seeded in a 96-well plate at 1200 cells/well, and 3D culture was performed. 14 days after a compound serially diluted was added, the growth of the cells was measured. The inhibition percentage and IC50 of the compound were calculated compared to the DMSO control group.

Test [3] deals with PC3 cells. Nature of the test: PC3 cell proliferation, 3D activity assay (3D culture, 14 days). It counts as cell-based, human. As to conditions: Homo sapiens, PC-3, 336 h, read-out: 3D inhibitory activity against PC3 cells IC50. Here is the method:
as §1

Sequence of FAK recombinant protein (Q05397 whole entry): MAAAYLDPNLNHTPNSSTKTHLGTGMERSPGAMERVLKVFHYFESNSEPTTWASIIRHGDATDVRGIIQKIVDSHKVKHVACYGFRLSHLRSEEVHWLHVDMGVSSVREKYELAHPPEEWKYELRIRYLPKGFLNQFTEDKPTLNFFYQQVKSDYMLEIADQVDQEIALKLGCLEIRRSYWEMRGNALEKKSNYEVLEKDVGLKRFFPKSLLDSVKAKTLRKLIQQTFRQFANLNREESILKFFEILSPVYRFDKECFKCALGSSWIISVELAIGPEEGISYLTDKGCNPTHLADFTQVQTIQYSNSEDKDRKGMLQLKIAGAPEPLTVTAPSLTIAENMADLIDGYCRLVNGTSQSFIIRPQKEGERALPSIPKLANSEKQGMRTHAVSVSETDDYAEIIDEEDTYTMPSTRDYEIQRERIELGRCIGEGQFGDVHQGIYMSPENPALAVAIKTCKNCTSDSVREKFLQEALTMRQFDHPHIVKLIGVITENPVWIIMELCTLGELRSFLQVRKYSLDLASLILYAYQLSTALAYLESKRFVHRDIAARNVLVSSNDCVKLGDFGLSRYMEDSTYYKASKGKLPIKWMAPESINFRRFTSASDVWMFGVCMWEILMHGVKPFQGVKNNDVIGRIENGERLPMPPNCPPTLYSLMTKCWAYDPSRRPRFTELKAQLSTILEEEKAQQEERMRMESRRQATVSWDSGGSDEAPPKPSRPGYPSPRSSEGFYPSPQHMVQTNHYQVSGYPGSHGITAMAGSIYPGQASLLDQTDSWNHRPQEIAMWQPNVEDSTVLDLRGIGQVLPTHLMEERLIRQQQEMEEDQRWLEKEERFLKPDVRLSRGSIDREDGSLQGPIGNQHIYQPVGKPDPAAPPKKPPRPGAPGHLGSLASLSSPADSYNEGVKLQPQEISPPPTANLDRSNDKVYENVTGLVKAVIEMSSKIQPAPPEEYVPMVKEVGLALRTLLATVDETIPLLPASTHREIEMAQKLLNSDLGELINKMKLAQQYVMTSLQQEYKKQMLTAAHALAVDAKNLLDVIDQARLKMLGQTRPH

Take `CN1C(=O)c2c(Oc3nc(Nc4ccc5c(c4)CNC5=O)ncc3C(F)(F)F)cccc2C12CC2` [Compound 70]: the concentration for half-maximal inhibition (IC50) in test [1] was under 0.02 µM; in test [2], over 2 µM; in test [3], over 0.05 µM.

With `CN1CCC(N2C(=O)Cc3cc(Nc4ncc(C(F)(F)F)c(Oc5cccc6c5C(=O)N(C)C65CC5)n4)ccc32)CC1` [Compound 72], the IC50 in test [1] was under 0.02 µM; in test [2], over 2 µM; in test [3] it was under 0.005 µM.

Regarding `COc1cc(N2CCNCC2)ccc1Nc1ncc(C(F)(F)F)c(Oc2cccc3c2C(=O)N(C)C32CC2)n1` [Compound 74, 4′-((2-((2-methoxy-4-(piperazin-1-yl)phenyl)amino)-5-(trifluoromethyl)pyrimidin-4-yl)oxy)-2′-methylspiro[cyclopropane-1,1′-isoindolin]-3′-one], the results for the 50% inhibitory concentration (IC50) in test [1], in test [2] and in test [3] were under 0.02 µM, over 2 µM and 0.005 to 0.05 µM, respectively.

`COc1cc(N2CCN(CC(=O)N(C)C)CC2)ccc1Nc1ncc(C(F)(F)F)c(Oc2cccc3c2C(=O)N(C)C32CC2)n1` [Compound 75, 2-(4-(3-methoxy-4-((4-((2′-methyl-3′-oxospiro[cyclopropane-1,1′-isoindolin]-4′-yl)oxy)-5-(trifluoromethyl)pyrimidin-2-yl)amino)phenyl)piperazin-1-yl)-N,N-dimethylacetamide]: the values for the half-maximal inhibitory concentration (IC50) in test [1], in test [2] and in test [3] were under 0.02 µM, over 2 µM and under 0.005 µM, respectively.

Turning to `COCCN1CCN(c2ccc(Nc3ncc(C(F)(F)F)c(Oc4cccc5c4C(=O)N(C)C54CC4)n3)c(OC)c2)CC1` [Compound 76, 4′-((2-((2-methoxy-4-(4-(2-methoxyethyl)piperazin-1-yl)phenyl)amino)-5-(trifluoromethyl)pyrimidin-4-yl)oxy)-2′-methylspiro[cyclopropane-1,1′-isoindolin]-3′-one], the concentration for half-maximal inhibition (IC50) in test [1] was under 0.02 µM; in test [2], over 2 µM; in test [3] it was under 0.005 µM.

As to `COc1cc(CN(C)C)ccc1Nc1ncc(C(F)(F)F)c(Oc2cccc3c2C(=O)N(C)C32CC2)n1` [Compound 80], the values for the IC50 in test [1], in test [2] and in test [3] were under 0.02 µM, over 2 µM and 0.005 to 0.05 µM, respectively.

For `COc1cc(CN2CCCC2)ccc1Nc1ncc(C(F)(F)F)c(Oc2cccc3c2C(=O)N(C)C32CC2)n1` [Compound 81], the IC50 in test [1] was under 0.02 µM; in test [2], over 2 µM; in test [3] it was 0.005 to 0.05 µM.

Regarding `COc1cc(N2CCN(C)CC2=O)ccc1Nc1ncc(C(F)(F)F)c(Oc2cccc3c2C(=O)N(C)C32CC2)n1` [Compound 83], the half-maximal inhibitory concentration (IC50) in test [1] is under 0.02 µM; in test [2], over 2 µM; in test [3] it was over 0.05 µM.

Regarding `COc1cc(C2CCN(C)CC2)ccc1Nc1ncc(C(F)(F)F)c(Oc2cccc3c2C(=O)N(C)C32CC2)n1` [Compound 84], the IC50 in test [1] is under 0.02 µM; in test [2], over 2 µM; in test [3] it was under 0.005 µM.

Turning to `CN1CCN(c2ccc(Nc3ncc(C(F)(F)F)c(Oc4cccc5c4C(=O)N(C)C54CC4)n3)nc2)CC1` [Compound 85], the results for the half-inhibitory concentration (IC50) in test [1], in test [2] and in test [3] were under 0.02 µM, over 2 µM and 0.005 to 0.05 µM, respectively.

As to `COc1cc2c(cc1Nc1ncc(C(F)(F)F)c(Oc3cccc4c3C(=O)N(C)C43CC3)n1)CN(C)CC2` [Compound 86], the figures for the IC50 in test [1], in test [2] and in test [3] were under 0.02 µM, over 2 µM and 0.005 to 0.05 µM, respectively.

Take `COc1cc2c(cc1Nc1ncc(C(F)(F)F)c(Oc3cccc4c3C(=O)N(C)C43CC3)n1)CN(C)C(=O)C2` [Compound 90]: the values for the IC50 in test [1], in test [2] and in test [3] were under 0.02 µM, over 2 µM and 0.005 to 0.05 µM, respectively.

For the compound `Cc1c(Nc2ncc(C(F)(F)F)c(Oc3cccc4c3C(=O)N(C)C43CC3)n2)nn2c1CCC2` [Compound 93], the half-inhibitory concentration (IC50) in test [1] is under 0.02 µM; in test [2], over 2 µM; in test [3] it was 0.005 to 0.05 µM.

`CN1C(=O)c2c(Oc3nc(Nc4cc5n(n4)CCOC5)ncc3C(F)(F)F)cccc2C12CC2` [Compound 94]: the IC50 is under 0.02 µM in test [1], over 2 µM in test [2] and under 0.005 µM in test [3].

For the compound `CN1C(=O)c2c(Oc3nc(Nc4cnn5c4COCC5)ncc3C(F)(F)F)cccc2C12CC2` [Compound 95], the IC50 is under 0.02 µM in test [1], over 2 µM in test [2] and 0.005 to 0.05 µM in test [3].

Turning to `CN1CCn2nc(Nc3ncc(C(F)(F)F)c(Oc4cccc5c4C(=O)N(C)C54CC4)n3)cc2C1` [Compound 96], the results for the IC50 in test [1], in test [2] and in test [3] were under 0.02 µM, over 2 µM and under 0.005 µM, respectively.

With `CN1CCC(n2ccc(Nc3ncc(C(F)(F)F)c(Oc4cccc5c4C(=O)N(C)C54CC4)n3)n2)CC1` [Compound 97], the IC50 is under 0.02 µM in test [1], over 2 µM in test [2] and 0.005 to 0.05 µM in test [3].

For `Cc1cn(C2CCN(C)CC2)nc1Nc1ncc(C(F)(F)F)c(Oc2cccc3c2C(=O)N(C)C32CC2)n1` [Compound 98], the IC50 in test [1] was under 0.02 µM; in test [2] it was over 2 µM; in test [3] it was 0.005 to 0.05 µM.

Consider `COc1cc(C(=O)NC2CCN(C)CC2)ccc1Nc1ncc(C(F)(F)F)c(Cc2cccc3c2C(=O)N(C)C32CC2)n1` [Compound 99, 3-methoxy-4-((4-((2′-methyl-3′-oxospiro[cyclopropane-1,1′-isoindolin]-4′-yl)methyl)-5-(trifluoromethyl)pyrimidin-2-yl)amino)-N-(1-methylpiperidin-4-yl)benzamide], for which the results for the IC50 in test [1], in test [2] and in test [3] were under 0.02 µM, over 2 µM and 0.005 to 0.05 µM, respectively.

In the case of `COc1cc(C(=O)NC2CCN(C)CC2)c(F)cc1Nc1ncc(C(F)(F)F)c(Cc2cccc3c2C(=O)N(C)C32CC2)n1` [Compound 100, 2-fluoro-5-methoxy-4-((4-((2′-methyl-3′-oxospiro[cyclopropane-1,1′-isoindolin]-4′-yl)methyl)-5-(trifluoromethyl)pyrimidin-2-yl)amino)-N-(1-methylpiperidin-4-yl)benzamide], the results for the IC50 in test [1], in test [2] and in test [3] were under 0.02 µM, over 2 µM and 0.005 to 0.05 µM, respectively.

For `COc1cc(C(=O)NC2CC3(CCN(C)CC3)C2)ccc1Nc1ncc(C(F)(F)F)c(Cc2cccc3c2C(=O)N(C)C32CC2)n1` [Compound 101, 3-methoxy-4-((4-((2′-methyl-3′-oxospiro[cyclopropane-1,1′-isoindolin]-4′-yl)methyl)-5-(trifluoromethyl)pyrimidin-2-yl)amino)-N-(7-methyl-7-azaspiro[3.5]nonan-2-yl)benzamide], the IC50 in test [1] is under 0.02 µM; in test [2] it was over 2 µM; in test [3], 0.005 to 0.05 µM.

Turning to `COc1cc(C(=O)NC2CC3(CCN(C)CC3)C2)c(F)cc1Nc1ncc(C(F)(F)F)c(Cc2cccc3c2C(=O)N(C)C32CC2)n1` [Compound 102], the IC50 in test [1] was under 0.02 µM; in test [2], over 2 µM; in test [3], 0.005 to 0.05 µM.

On to `COc1cc(C(=O)NC2CCC3(CC2)CN(C)C3)ccc1Nc1ncc(C(F)(F)F)c(Cc2cccc3c2C(=O)N(C)C32CC2)n1` [Compound 103], for which the figures for the IC50 in test [1], in test [2] and in test [3] were under 0.02 µM, over 2 µM and 0.005 to 0.05 µM, respectively.

As for `COc1cc(C(=O)NC2CCC3(CCN(C)C3)C2)ccc1Nc1ncc(C(F)(F)F)c(Cc2cccc3c2C(=O)N(C)C32CC2)n1` (stereo not drawn) [Compound 104], the IC50 is under 0.02 µM in test [1], over 2 µM in test [2] and 0.005 to 0.05 µM in test [3].
